# Data reported in ChEMBL document CHEMBL1126350, “Phosphonoethylphenylalanine derivatives as novel antagonists of non-NMDA ionotropic glutamate receptors” (Bioorg Med Chem Lett, 1992).
# Tests used:
# Assay type in all cases: functional
# [1] = system: Mus musculus; experiment: Compound was tested for its ability to inhibit pentylenetetrazole-induced seizures in male CF-1 mice by i.c.v. administration
# [2] = species on record: Rattus norvegicus; experiment: Inhibition of kainic acid (KA)-induced currents in rat brain mRNA-injected xenopus oocytes
# [3] = species on record: Rattus norvegicus; experiment: The compound was tested for its ability to inhibit AMPA-induced currents in rat brain mRNA-injected xenopus oocytes
# [4] = system: Mus musculus; experiment: Compound was tested for its ability to inhibit pentylenetetrazole-induced seizures in male CF-1 mice by i.p. administration; conditions: ip
# [5] = species on record: Rattus norvegicus; experiment: Compound was tested against kainic acid-induced neuronal damage in rat striatum, as assessed by preventing reduction in glutamate decarboxylase GAD activity; design: scale not given: the % may be the effect or the level left
# [6] = species on record: Rattus norvegicus; experiment: Compound was tested against kainic acid-induced neuronal damage in rat striatum, as assessed by preventing reduction in choline acetyltransferase (ChAT) activity; design: scale not given: the % may be the effect or the level left
SMILES,Ki [2] [µM],Ki [3] [µM],also measured
O=C(O)C1CN(CCCP(=O)(O)O)CCN1 (stereo not given),,,ED50 [1]: 0.15 nmol
Cc1cc(C)c(CCP(=O)(O)O)c(C[C@H](N)C(=O)O)c1,,,ED50 [1]: 0.3 nmol; ED50 [4]: 111 mg/kg
Cc1ccc(CCP(=O)(O)O)c(C[C@H](N)C(=O)O)c1,,,ED50 [1]: 0.58 nmol; ED50 [4]: 124 mg/kg
NC(Cc1cc(C2CCCCC2)ccc1CCP(=O)(O)O)C(=O)O (stereo not given),139,,
Cc1cccc(CCP(=O)(O)O)c1CC(N)C(=O)O (stereo not given),> 100,,
CC(C)(C)c1ccc(CCP(=O)(O)O)c(CC(N)C(=O)O)c1 (stereo not given),29,,
Cc1cccc(CC(N)C(=O)O)c1CCP(=O)(O)O (stereo not given),> 100,,
CCc1ccc(CCP(=O)(O)O)c(CC(N)C(=O)O)c1 (stereo not given),17,50,
Cc1ccc(CC(N)C(=O)O)c(CCP(=O)(O)O)c1 (stereo not given),> 100,,
COc1ccc(CCP(=O)(O)O)c(CC(N)C(=O)O)c1 (stereo not given),67,,
NC(Cc1cccc(-c2ccccc2)c1CCP(=O)(O)O)C(=O)O (stereo not given),83,,
NC(Cc1cc(F)ccc1CCP(=O)(O)O)C(=O)O (stereo not given),68,167,
NC(Cc1cc(-c2ccccc2)ccc1CCP(=O)(O)O)C(=O)O (stereo not given),76,,
C=C(C)[C@H]1CN[C@H](C(=O)O)[C@H]1CC(=O)O [KAINIC ACID],,,Activity [5]: 45%; Activity [6]: 32%

# The remaining molecules from weak to strong by Ki [2], led by results:
Ki [2] [µM],Ki [3] [µM],SMILES,also measured
15,48,NC(Cc1cc(Cl)ccc1CCP(=O)(O)O)C(=O)O (stereo not given),
12,39,Cc1cc(C)c(CCP(=O)(O)O)c(CC(N)C(=O)O)c1 (stereo not given),
11,13,Cc1ccc(CCP(=O)(O)O)c(CC(N)C(=O)O)c1 (stereo not given),
10,61,NC(Cc1cc(Br)ccc1CCP(=O)(O)O)C(=O)O (stereo not given),
10,,NC(Cc1cc(C(F)(F)F)ccc1CCP(=O)(O)O)C(=O)O (stereo not given),
3.6,16,NC(Cc1cc(I)ccc1CCP(=O)(O)O)C(=O)O (stereo not given),
